Assays:
[1] = system: leukocyte rolling on activated, collagen-adhering platelets; experiment: Recruitment of leukocytes to adherent, activated platelets under shear; assay type: cell-based; settings: increasing concentrations; citrated human blood with 2.5 μM Integrilin, type III collagen, 10 minutes, shear 650/sec (FIG. 3)
Procedure: Briefly, human blood, anticoagulated with citrate in the presence of 2.5 μM Integrilin, was exposed for 10 minutes to type III collagen at a shear rate of 650/sec.

[2] = system: leukocyte adhesion to IL-1β-activated human umbilical endothelial cells; experiment: Recruitment of leukocytes to activated endothelial cells under shear; assay type: cell-based; settings: 25 or 50 μM; citrated human blood, IL-1β-activated endothelial cells, shear 650/sec (FIG. 4)
From the text: Briefly, cultured monolayers of human umbilical endothelial cells were activated by exposure to IL-1β for 24 hrs. Human blood, anticoagulated with citrate, was exposed to the activated endothelial cells at a shear rate of 650/sec for the time indicated.

[3] = system: platelet thrombus formation on type III collagen; experiment: Platelet thrombus formation on type III collagen under shear; assay type: cell-based, human
Procedure: Briefly, unanticoagulated human blood was exposed to type III collagen for 4 minutes at a rate of shear (e.g., about 850/sec.) equivalent to that encountered in coronary arteries.

CC(=O)N(C)c1ccc(Nc2nc(NC3CCC3)c3[nH]cnc3n2)cc1.Cl [NVP-QAB205]
inhibition of leukocyte rolling [1]: caused inhibition of leukocyte rolling
inhibition of leukocyte adhesion to activated endothelial cells [2]: marked inhibition of leukocyte adhesion
platelet adhesion ([3]; at 5, 10, and 25 μM (see FIG. 2)): did not completely block platelet adhesion
inhibition of thrombus formation ([3]; increasing concentrations, unanticoagulated human blood, type III collagen, 4 minutes, shear about 850/sec (FIG. 2)): caused inhibition of thrombus formation
